Assay results reported in the NIST ThermoML archive (doi:10.1016/j.tca.2009.06.015).
Numbers after ± are expanded uncertainties.

How the values were obtained:
[1] = refractive index (Na D-line) (dimensionless); xn = mol fraction of the nth substance listed; conditions: 101 kPa, Liquid, Standard Abbe refractometry
[2] = xn = mol fraction of the nth substance listed; conditions: 101 kPa, Liquid; for viscosity: Capillary tube (Ostwald / Ubbelohde) method; for mass density: Vibrating tube method

CCC(C)O (configuration not stated) [butan-2-ol] + CC#N
Conditions | mass density, [2] [kg/m3] | refractive index, [1] | viscosity, [2] [mPa·s]
293.15 K, x2 = 0 | 806.57 ± 0.31 | 1.3966 ± 0.0021 | 3.912 ± 0.046
293.15 K, x2 = 0.0844 | 804.53 ± 0.31 | 1.3952 ± 0.0021 | 2.503 ± 0.031
293.15 K, x2 = 0.1644 | 802.5 ± 0.3 | 1.393 ± 0.0021 | 1.654 ± 0.019
293.15 K, x2 = 0.2516 | 800.41 ± 0.31 | 1.3899 ± 0.0021 | 1.376 ± 0.014
293.15 K, x2 = 0.3369 | 798.33 ± 0.31 | 1.386 ± 0.0021 | 1.089 ± 0.011
293.15 K, x2 = 0.4444 | 795.68 ± 0.31 | 1.3804 ± 0.0021 | 0.8564 ± 0.0088
293.15 K, x2 = 0.5382 | 793.35 ± 0.31 | 1.3751 ± 0.0021 | 0.6953 ± 0.0072
293.15 K, x2 = 0.6425 | 790.7 ± 0.3 | 1.3686 ± 0.002 | 0.5565 ± 0.0061
293.15 K, x2 = 0.761 | 788.1 ± 0.3 | 1.361 ± 0.002 | 0.4636 ± 0.0052
293.15 K, x2 = 0.8715 | 785.92 ± 0.31 | 1.3534 ± 0.002 | 0.3984 ± 0.0043
293.15 K, x2 = 0.9588 | 783.48 ± 0.31 | 1.3467 ± 0.0021 | 0.3663 ± 0.004
298.15 K, x2 = 0 | 802.56 ± 0.31 | 1.3946 ± 0.0021 | 3.132 ± 0.039
298.15 K, x2 = 0.0844 | 800.28 ± 0.31 | 1.3918 ± 0.0021 | 2.135 ± 0.024
298.15 K, x2 = 0.1644 | 798.07 ± 0.31 | 1.3893 ± 0.0021 | 1.574 ± 0.015
298.15 K, x2 = 0.2516 | 795.79 ± 0.31 | 1.3865 ± 0.0021 | 1.218 ± 0.013
298.15 K, x2 = 0.3369 | 793.63 ± 0.31 | 1.383 ± 0.0021 | 0.992 ± 0.01
298.15 K, x2 = 0.4444 | 790.96 ± 0.31 | 1.3782 ± 0.002 | 0.7937 ± 0.0082
298.15 K, x2 = 0.5382 | 788.5 ± 0.3 | 1.3734 ± 0.0021 | 0.6498 ± 0.0068
298.15 K, x2 = 0.6425 | 785.67 ± 0.31 | 1.3674 ± 0.0021 | 0.518 ± 0.0055
298.15 K, x2 = 0.761 | 782.65 ± 0.31 | 1.3597 ± 0.0021 | 0.4216 ± 0.0046
298.15 K, x2 = 0.8715 | 779.99 ± 0.31 | 1.3518 ± 0.0021 | 0.3868 ± 0.0042
298.15 K, x2 = 0.9588 | 777.71 ± 0.31 | 1.3448 ± 0.0021 | 0.3632 ± 0.004
303.15 K, x2 = 0 | 798.26 ± 0.31 | 1.3924 ± 0.0021 | 2.534 ± 0.029
303.15 K, x2 = 0.0844 | 795.95 ± 0.31 | 1.3902 ± 0.0021 | 1.794 ± 0.02
303.15 K, x2 = 0.1644 | 793.74 ± 0.31 | 1.3886 ± 0.0021 | 1.383 ± 0.015
303.15 K, x2 = 0.2516 | 791.38 ± 0.31 | 1.386 ± 0.0021 | 1.082 ± 0.011
303.15 K, x2 = 0.3369 | 789.07 ± 0.31 | 1.3829 ± 0.0021 | 0.8873 ± 0.0093
303.15 K, x2 = 0.4444 | 786.17 ± 0.31 | 1.3779 ± 0.0021 | 0.7129 ± 0.0075
303.15 K, x2 = 0.5382 | 783.62 ± 0.31 | 1.3722 ± 0.002 | 0.5936 ± 0.0063
303.15 K, x2 = 0.6425 | 780.73 ± 0.31 | 1.3656 ± 0.002 | 0.4865 ± 0.0052
303.15 K, x2 = 0.761 | 777.45 ± 0.31 | 1.3575 ± 0.002 | 0.4019 ± 0.0044
303.15 K, x2 = 0.8715 | 774.43 ± 0.31 | 1.3495 ± 0.002 | 0.3612 ± 0.0041
303.15 K, x2 = 0.9588 | 772.05 ± 0.31 | 1.3426 ± 0.002 | 0.3414 ± 0.0039
308.15 K, x2 = 0 | 793.96 ± 0.31 | 1.3905 ± 0.0021 | 2.172 ± 0.024
308.15 K, x2 = 0.0844 | 791.55 ± 0.31 | 1.3876 ± 0.0021 | 1.572 ± 0.015
308.15 K, x2 = 0.1644 | 789.27 ± 0.31 | 1.3853 ± 0.0021 | 1.213 ± 0.012
308.15 K, x2 = 0.2516 | 786.77 ± 0.31 | 1.3825 ± 0.0021 | 0.9642 ± 0.0098
308.15 K, x2 = 0.3369 | 784.37 ± 0.31 | 1.3799 ± 0.0021 | 0.8021 ± 0.0082
308.15 K, x2 = 0.4444 | 781.35 ± 0.31 | 1.3753 ± 0.0021 | 0.6524 ± 0.0068
308.15 K, x2 = 0.5382 | 778.69 ± 0.31 | 1.3713 ± 0.002 | 0.5479 ± 0.0058
308.15 K, x2 = 0.6425 | 775.68 ± 0.31 | 1.3659 ± 0.002 | 0.4533 ± 0.0048
308.15 K, x2 = 0.761 | 772.27 ± 0.31 | 1.3592 ± 0.002 | 0.379 ± 0.0041
308.15 K, x2 = 0.8715 | 768.99 ± 0.31 | 1.351 ± 0.002 | 0.3437 ± 0.0039
308.15 K, x2 = 0.9588 | 766.51 ± 0.31 | 1.3423 ± 0.002 | 0.3238 ± 0.0037
